pIC50: −log10 of the molar value.

The text below walks through data of US9765089B2, “ACC inhibitors and uses thereof” (Gilead Apollo, LLC, priority 2013, dated 2017).

The first experiment deals with ACC1.
Assay: not given
Particulars: ACC1 isolated from rat, mouse, monkey and human; cited from earlier work.
The term pIC50 denotes the IC50 on a negative log10 scale, so that one unit is a factor of ten. Regarding `O=C(c1c2ccccc2cc2ccccc12)N1CCC(N2CCC[C@@H](C(=O)N3CCOCC3)C2)CC1` [CP-640186], the pIC50 was around 7.22.

The subject of a further experiment is ACC2.
Assay: not given
Particulars: ACC2 isolated from rat, mouse, monkey and human; cited from earlier work.
In the case of `O=C(c1c2ccccc2cc2ccccc12)N1CCC(N2CCC[C@@H](C(=O)N3CCOCC3)C2)CC1` [CP-640186], the pIC50 was around 7.22.

For another experiment, the target named is ACC2 (Homo sapiens, UniProt O00763). As to the kind of experiment: in vitro ACC2 inhibition assay (ADP-Glo). Particulars: 5 nM ACC2, 20 μM ATP, 20 μM acetyl-CoA, 60 min room temperature, luminescence. The format is biochemical. The protocol: In Vitro Acetyl-CoA Carboxylase (ACC) Inhibition Assay
ACC2 (Homo sapiens, UniProt O00763), sequence (O00763 whole entry, species assumed): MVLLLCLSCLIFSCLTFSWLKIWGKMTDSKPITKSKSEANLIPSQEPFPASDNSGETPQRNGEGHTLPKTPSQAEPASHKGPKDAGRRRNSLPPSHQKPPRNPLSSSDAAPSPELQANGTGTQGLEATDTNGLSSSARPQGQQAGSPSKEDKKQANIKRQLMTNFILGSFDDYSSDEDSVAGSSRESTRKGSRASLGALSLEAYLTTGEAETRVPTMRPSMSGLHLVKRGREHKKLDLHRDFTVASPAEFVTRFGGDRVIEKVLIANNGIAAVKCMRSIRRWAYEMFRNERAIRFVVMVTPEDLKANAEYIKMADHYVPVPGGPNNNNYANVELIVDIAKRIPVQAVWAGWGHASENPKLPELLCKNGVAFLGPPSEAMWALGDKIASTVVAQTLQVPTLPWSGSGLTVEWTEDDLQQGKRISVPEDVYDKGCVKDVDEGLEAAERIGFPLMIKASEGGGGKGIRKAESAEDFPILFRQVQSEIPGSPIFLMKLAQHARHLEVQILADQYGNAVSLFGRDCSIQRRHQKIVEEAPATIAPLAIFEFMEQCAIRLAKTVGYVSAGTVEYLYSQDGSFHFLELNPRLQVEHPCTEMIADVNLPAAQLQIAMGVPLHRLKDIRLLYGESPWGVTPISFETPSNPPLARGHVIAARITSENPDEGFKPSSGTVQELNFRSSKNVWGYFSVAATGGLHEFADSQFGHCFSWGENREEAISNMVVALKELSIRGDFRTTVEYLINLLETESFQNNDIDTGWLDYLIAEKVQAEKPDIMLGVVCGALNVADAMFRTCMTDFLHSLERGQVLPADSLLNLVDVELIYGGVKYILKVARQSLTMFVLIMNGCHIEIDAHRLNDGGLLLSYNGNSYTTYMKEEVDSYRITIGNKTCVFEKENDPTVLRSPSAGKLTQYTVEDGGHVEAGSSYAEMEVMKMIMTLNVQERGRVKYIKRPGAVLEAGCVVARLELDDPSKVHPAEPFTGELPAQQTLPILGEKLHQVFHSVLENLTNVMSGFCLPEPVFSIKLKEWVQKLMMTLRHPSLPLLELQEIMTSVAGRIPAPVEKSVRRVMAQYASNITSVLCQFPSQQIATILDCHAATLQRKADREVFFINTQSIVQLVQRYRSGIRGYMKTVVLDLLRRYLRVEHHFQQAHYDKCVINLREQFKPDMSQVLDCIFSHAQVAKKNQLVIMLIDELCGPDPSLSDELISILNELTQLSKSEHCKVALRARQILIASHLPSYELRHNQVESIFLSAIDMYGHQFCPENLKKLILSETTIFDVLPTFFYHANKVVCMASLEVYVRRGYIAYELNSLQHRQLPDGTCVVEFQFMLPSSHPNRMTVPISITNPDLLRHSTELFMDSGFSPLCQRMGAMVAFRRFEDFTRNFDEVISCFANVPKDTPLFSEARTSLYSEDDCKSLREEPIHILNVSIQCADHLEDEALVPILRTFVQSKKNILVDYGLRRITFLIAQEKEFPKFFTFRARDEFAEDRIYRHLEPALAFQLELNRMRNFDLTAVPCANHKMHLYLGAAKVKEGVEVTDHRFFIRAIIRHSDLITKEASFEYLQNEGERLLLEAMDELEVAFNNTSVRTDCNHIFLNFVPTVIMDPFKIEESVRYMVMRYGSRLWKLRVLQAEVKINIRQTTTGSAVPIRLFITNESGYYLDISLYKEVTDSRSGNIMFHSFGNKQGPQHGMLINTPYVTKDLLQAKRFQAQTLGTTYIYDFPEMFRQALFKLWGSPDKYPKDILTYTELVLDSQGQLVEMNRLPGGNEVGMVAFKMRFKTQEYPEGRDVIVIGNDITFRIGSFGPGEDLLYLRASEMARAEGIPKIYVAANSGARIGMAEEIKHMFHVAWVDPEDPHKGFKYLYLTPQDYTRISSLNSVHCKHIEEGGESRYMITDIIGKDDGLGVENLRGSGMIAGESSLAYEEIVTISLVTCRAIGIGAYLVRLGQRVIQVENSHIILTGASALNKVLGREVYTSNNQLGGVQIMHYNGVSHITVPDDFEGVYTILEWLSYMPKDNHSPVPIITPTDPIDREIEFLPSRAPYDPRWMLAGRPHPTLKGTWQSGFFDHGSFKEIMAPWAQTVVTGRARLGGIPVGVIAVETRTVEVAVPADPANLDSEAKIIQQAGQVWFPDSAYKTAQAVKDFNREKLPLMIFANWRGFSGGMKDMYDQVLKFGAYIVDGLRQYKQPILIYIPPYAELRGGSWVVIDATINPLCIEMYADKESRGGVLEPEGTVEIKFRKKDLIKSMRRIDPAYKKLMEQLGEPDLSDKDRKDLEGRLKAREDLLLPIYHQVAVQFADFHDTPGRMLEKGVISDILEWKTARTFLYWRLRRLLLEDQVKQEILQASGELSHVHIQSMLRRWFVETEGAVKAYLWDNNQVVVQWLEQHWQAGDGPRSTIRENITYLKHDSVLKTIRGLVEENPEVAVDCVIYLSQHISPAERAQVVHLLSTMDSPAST
An exemplary procedure for the in vitro ACC inhibition assay, which can be used to determine the inhibitory action of compounds of the invention toward either ACCT or ACC2, follows. The ADP-Glo™ Kinase Assay kit from Promega is used. The ADP-Glo™ Kinase Assay is a luminescent ADP detection assay to measure enzymatic activity by quantifying the amount of ADP produced during an enzyme reaction. The assay is performed in two steps; first, after the enzyme reaction, an equal volume of ADP-Glo™ Reagent is added to terminate the reaction and deplete the remaining ATP. Second, the Kinase Detection Reagent is added to simultaneously convert ADP to ATP and allow the newly synthesized ATP to be measured using a luciferase/luciferin reaction. Luminescence can be correlated to ADP concentrations by using an ATP-to-ADP conversion curve. The detailed procedure is as follows. 50 μL of the compound being tested (600 uM in DMSO) is added to a 384-well dilution plate. The compound is diluted 1:3 in succession in DMSO for each row for 11 wells. […] is added to 384-well white Optiplate assay plate. 0.5 μL diluted compound solution in each column from step 2 is added to the assay plate, each row containing 2 replicates. For the last 2 rows, add 0.5 μL negative control (DMSO) in one row and 0.5 μL positive control (compound I-97) in the other. The plates are incubated at room temperature for 15 minutes. 5 μL substrate working solution is added to each well to initiate reaction. Final ACC2 reaction concentrations consist of: 5 nM ACC2, 20 μM ATP, 20 μM acetyl-CoA, 12 mM NaHCO3, 0.01% Brij35, 2 mM DTT, 5% DMSO, test compound concentrations: 30 μM, 10 μM, 3.33 μM, 1.11 μM, 0.37 μM, 0.123 μM, 0.0411 μM, 0.0137 μM, 0.00457 μM, 0.00152 μM, and 0.00051 μM. Plates are incubated at room temperature for 60 minutes. 10 μL ADP glo reagent is added. Plates are incubated at room temperature for 40 minutes. 20 μL kinase detection reagent is added. Plates are incubated at room temperature for 40 minutes, then read on a Perkin Elmer EnVision 2104 plate reader for luminescence as Relative Light Units (RLU).
Data for each concentration, as well as the positive and negative controls are averaged, and the standard deviation calculated. Percent inhibition is calculated by the formula: 100×(average negative control−compound)/(average negative control−average positive control). The IC50 for each compound is calculated by fitting the data with a non-linear regression equation: Y=Bottom+(Top-Bottom)/(1+10^((Log IC50−X)*HillSlope)), where X is the log of compound concentration and Y is percent inhibition.
The compound numbers correspond to the compound numbers in Table 1. Compounds having an activity designated as “AAA” provided an IC50≦0.1 μM; compounds having an activity designated as “AA” provided an IC50≦1 μM; compounds having an activity designated as “A” provided an IC50≦5 μM; compounds having an activity designated as “B” provided an IC50 of 5-20 μM; compounds having an activity designated as “C” provided an IC50 of 20-50 μM; and compounds having an activity designated as “D” provided an IC50≧50 μM
In turn, “2-(4-((R)-2-(5-fluoro-2-methoxyphenyl)-2-((tetrahydro-2H-pyran-4-yl)oxy)ethyl)-7-methyl-6-(oxazol-2-yl)-1,1-dioxido-3-oxo-3,4,4a,7a-tetra-hydro-2H-thieno[2,3-e][1,2,4]thiadiazin-2-yl)acetic acid [Compound I-41]” gave a pIC50 of at least 7.00. Same read-out and setting: the result for `COc1ccc(F)cc1[C@H](CN1C(=O)N(C(C)(C)C(=O)O)S(=O)(=O)c2c1sc(-c1ncco1)c2C)OC1CCOCC1` [Compound I-42, (R)-2-(4-(2-(5-fluoro-2-methoxyphenyl)-2-((tetrahydro-2H-pyran-4-yl)oxy)ethyl)-7-methyl-6-(oxazol-2-yl)-1,1-dioxido-3-oxo-3,4-dihydro-2H-thieno[2,3-e][1,2,4]thiadiazin-2-yl)-2-methylpropanoic acid] reads at least 5.30; that for `COc1ccccc1CCN1c2sc(-c3ncco3)c(C)c2C(=O)N(CC(=O)O)S1(=O)=O` [Compound I-43, 2-(1-(2-methoxyphenethyl)-5-methyl-6-(oxazol-2-yl)-2,2-dioxido-4-oxo-1H-thieno[2,3-c][1,2,6]thiadiazin-3(4H)-yl)acetic acid], 4.70 to 5.30. Compound `COc1ccccc1CCN1c2sc(-c3ncco3)c(C)c2C(=O)N(CC(N)=O)S1(=O)=O` [Compound I-44, 2-(1-(2-methoxyphenethyl)-5-methyl-6-(oxazol-2-yl)-2,2-dioxido-4-oxo-1H-thieno[2,3-c][1,2,6]thiadiazin-3(4H)-yl)acetamide] gave a pIC50 of 4.70 to 5.30. Regarding `COc1ccc(F)cc1[C@H](CN1C(=O)N(C(C)(C)C(=O)O)S(=O)(=O)c2c1sc(-c1ncco1)c2C)OC(C)C` [Compound I-45, (R)-2-(4-(2-(5-fluoro-2-methoxyphenyl)-2-isopropoxyethyl)-7-methyl-6-(oxazol-2-yl)-1,1-dioxido-3-oxo-3,4-dihydro-2H-thieno[2,3-e][1,2,4]thiadiazin-2-yl)-2-methylpropanoic acid], the pIC50 is 4.70 to 5.30. In turn, `COc1ccccc1[C@H](CN1C(=O)N(C(C)(C)C(=O)O)S(=O)(=O)c2c1sc(-c1ncco1)c2C)OC1CCOCC1` [Compound I-46, (R)-2-(4-(2-(2-methoxyphenyl)-2-((tetrahydro-2H-pyran-4-yl)oxy)ethyl)-7-methyl-6-(oxazol-2-yl)-1,1-dioxido-3-oxo-3,4-dihydro-2H-thieno[2,3-e][1,2,4]thiadiazin-2-yl)-2-methylpropanoic acid] gave a negative-log IC50 (pIC50) of 4.70 to 5.30.

The compound `COc1ccccc1[C@H](CN1C(=O)N(C(C)(C)C(=O)O)S(=O)(=O)c2c1sc(-c1ncco1)c2C)O[C@H]1CC[C@@H](O)CC1` [Compound I-47, 2-(4-((R)-2-(((1s,4S)-4-hydroxycyclohexyl)oxy)-2-(2-methoxyphenyl)ethyl)-7-methyl-6-(oxazol-2-yl)-1,1-dioxido-3-oxo-3,4-dihydro-2H-thieno[2,3-e][1,2,4]thiadiazin-2-yl)-2-methylpropanoic acid] had a negative logarithm of the IC50 (pIC50) of 4.70 to 5.30.

As for `CCOC(=O)c1sc2c(c1C)S(=O)(=O)N(C(C)(C)C(=O)OCc1ccccc1)C(=O)N2C[C@H](OC(C)C)c1cc(F)ccc1OC` [Compound I-48, (R)-ethyl 2-(1-(benzyloxy)-2-methyl-1-oxopropan-2-yl)-4-(2-(5-fluoro-2-methoxyphenyl)-2-isopropoxyethyl)-7-methyl-3-oxo-3,4-dihydro-2H-thieno[2,3-e][1,2,4]thiadiazine-6-carboxylate 1,1-dioxide], the pIC50 is 4.70 to 5.30. For `COc1ccccc1CCc1nn(CC(=O)O)c(=O)c2c(C)c(-c3ncco3)sc12` [Compound I-49, 2-(7-(2-methoxyphenethyl)-3-methyl-2-(oxazol-2-yl)-4-oxothieno[2,3-d]pyridazin-5(4H)-yl)acetic acid], the pIC50 was at most 4.30.
